What was measured:
[1] = Binding affinity against Opioid receptor delta 1 was measured in the guinea pig brain membranes using [3H]DADLE in the presence of 1 uM unlabeled DAMGO as radioligand
[2] = as above; remark: listed apart in the source

Structure (SMILES) | Ki [1] [nM] | Ki [2] [nM]
Oc1ccc2c3c1O[C@H]1C4=C(C[C@@]5(O)C(C2)N(CC2CC2)CC[C@]315)C(c1ccccc1)C1=C(O4)[C@@H]2Oc3c(O)ccc4c3[C@@]23CCN(CC2CC2)C(C4)[C@]3(O)C1 (some centres not stated) [bis(4-cyclopropylmethyl-12-oxa-4-azapentacyclo[9.6.1.01,13.05,17.07,18]octadeca-7(18),8,10,14-tetraene-10,17-diol)4-phenyl-4H-pyran] | 10 | –
Oc1ccc2c3c1O[C@H]1c4sc5c(c4C[C@@]4(O)C(C2)N(CC2CC2)CC[C@]314)C[C@@]1(O)C2Cc3ccc(O)c4c3[C@@]1(CCN2CC1CC1)[C@H]5O4 [bis(4-cyclopropylmethyl-12-oxa-4-azapentacyclo[9.6.1.01,13.05,17.07,18]octadeca-7(18),8,10,14-tetraene-10,17-diol)thiphene] | – | 77

Source: BindingDB's records for doi:10.1021/jm00108a008 (University of Minnesota, 1991)
